From US11124518B2, “L,2-dihydro-3H-pyrazolo[3,4-D]pyrimidin-3-one analogs” (Recurium IP Holdings, LLC, priority 2017, dated 2021)
Counter-ions that a name gives are not always drawn.

Columns and labels:
Wee1 kinase = Wee1 kinase (Homo sapiens (Human), UniProt P30291); experiment: Wee1 Binding Assay (FRET); conditions: Wee1 kinase 2 nM, tracer 178 50 nM, 60 min at RT, read-out: Wee1 Enzymatic IC50
Procedure: Wee 1 kinase was determined by using Flurorescence Resonance Energy Transfer (FRET) assay. […] The plate was shaken for 30 seconds, incubated for 60 min at RT, and recorded on fluorescence plate reader.

H23 cells = experiment: H23 Cellular Proliferation Assay (CellTiter-Glo); format: cell-based; conditions: Homo sapiens, NCI-H23, 96 h, 4 days
Procedure: Cells were treated with compounds diluted in DMSO and a 9 point 5-fold serial dilutions. Plates were placed in 37° C., 5% CO2 to incubate for 4 days. Before they were developed by adding 100 μL of CellTiter-Glo reagent (Promega) to the assay plate, plates were shaken briefly for 2 mins and allowed to incubate at RT for 10 mins. The plates are read with a M5e plate reader according to CellTiter-Glo protocol. The GraphPad Prism software was used to get IC50 values. The bottom of the plates was pasted with white back seal and luminescence was recorded with Enspire or Envision.

SW480 cells = experiment: SW480 Cellular Proliferation Assay (CellTiter-Glo); format: cell-based; conditions: Homo sapiens, 96 h, 4 days
Procedure: Cells were treated with compounds diluted in DMSO and a 10 point 3-fold serial dilutions. Plates were placed in 37° C., 5% CO2 for to incubate for 4 days. Before they were developed by adding 100 μL of CellTiter-Glo reagent (Promega) to the assay plate, plates were shaken briefly for 2 mins and allowed to incubate at RT for 60 mins. The bottom of the plates was pasted with white back seal and luminescence was recorded with Enspire or Envision.

Chain of Wee1 kinase (P30291 whole entry): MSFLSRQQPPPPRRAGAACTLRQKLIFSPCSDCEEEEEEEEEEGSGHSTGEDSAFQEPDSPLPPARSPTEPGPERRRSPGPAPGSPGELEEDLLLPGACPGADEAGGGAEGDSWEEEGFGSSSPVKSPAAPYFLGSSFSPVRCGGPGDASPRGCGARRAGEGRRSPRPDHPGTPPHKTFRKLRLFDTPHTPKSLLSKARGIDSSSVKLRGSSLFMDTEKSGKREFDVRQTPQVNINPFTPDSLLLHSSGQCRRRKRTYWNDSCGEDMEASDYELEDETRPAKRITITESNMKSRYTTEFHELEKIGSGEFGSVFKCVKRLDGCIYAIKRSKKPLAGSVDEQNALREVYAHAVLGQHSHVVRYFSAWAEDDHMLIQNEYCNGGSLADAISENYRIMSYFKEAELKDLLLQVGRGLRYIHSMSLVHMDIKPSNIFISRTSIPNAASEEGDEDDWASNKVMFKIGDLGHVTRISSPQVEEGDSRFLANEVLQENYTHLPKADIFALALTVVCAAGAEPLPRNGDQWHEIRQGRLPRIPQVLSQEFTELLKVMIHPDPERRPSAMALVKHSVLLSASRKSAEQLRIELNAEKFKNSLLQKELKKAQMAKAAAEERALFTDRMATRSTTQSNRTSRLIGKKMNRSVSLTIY

Row | Compound | IC50 (Wee1 kinase) [nM] | IC50 (H23 cells) [nM] | IC50 (SW480 cells) [nM]
1 | C=CCn1c(=O)c2cnc(Nc3ccc4c(c3)CN(C(C)=O)CC4)nc2n1-c1cccc(C(C)(C)O)n1 [Example 8, 6-((2-Acetyl-1,2,3,4-tetrahydroisoquinolin-7-yl)amino)-2-allyl-1-(6-(2-hydroxypropan-2-yl)pyridin-2-yl)-1,2-dihydro-3H-pyrazolo[3,4-d]pyrimidin-3-one] | < 10 | > 1000 | 100 to 1000
2 | C=CCn1c(=O)c2cnc(Nc3ccc4c(c3)CNCC43CC3)nc2n1-c1cccc(C(C)(C)O)n1 [Example 2, 2-Alyl-6-((2′,3′-dihydro-1′H-spiro[cyclopropane-1,4′-isoquinolin]-7′-yl)amino)-1-(6-(2-hydroxypropan-2-yl)pyridin-2-yl)-1,2-dihydro-3H-pyrazolo[3,4-d]pyrimidin-3-one hydrochloride] | < 10 | < 100 | > 1000
3 | C=CCn1c(=O)c2cnc(Nc3ccc4c(c3)CN(C)CC4(F)F)nc2n1-c1cccc(C(C)(C)O)n1 [Example 27, 2-Allyl-6-((4,4-difluoro-2-methyl-1,2,3,4-tetrahydroisoquinolin-7-yl)amino)-1-(6-(2-hydroxypropan-2-yl)pyridin-2-yl)-1,2-dihydro-3H-pyrazolo[3,4-d]pyrimidin-3-one] | – | > 1000 | –
4 | C=CCn1c(=O)c2cnc(Nc3ccc4c(c3)CN(C(C)=O)CC43CC3)nc2n1-c1cccc(C(C)(C)O)n1 [Example 4, 6-((2′-Acetyl-2′,3′-dihydro-1′H-spiro[cyclopropane-1,4′-isoquinolin]-7′-yl)amino)-2-allyl-1-(6-(2-hydroxypropan-2-yl)pyridin-2-yl)-1,2-dihydro-3H-pyrazolo[3,4-d]pyrimidin-3-one] | < 10 | – | –
5 | C=CCn1c(=O)c2cnc(Nc3ccc4c(c3)CCN(C)C4)nc2n1-c1cccc(C(C)(C)O)n1 [Example 16, 2-Allyl-1-(6-(2-hydroxypropan-2-yl)pyridin-2-yl)-6-((2-methyl-1,2,3,4-tetrahydroisoquinolin-6-yl)amino)-1,2-dihydro-3H-pyrazolo[3,4-d]pyrimidin-3-one] | < 10 | < 100 | > 1000
6 | C=CCn1c(=O)c2cnc(Nc3ccc4c(c3)CNCC4(F)F)nc2n1-c1cccc(C(C)(C)O)n1 [Example 28, 2-Allyl-6-((4,4-difluoro-1,2,3,4-tetrahydroisoquinolin-7-yl)amino)-1-(6-(2-hydroxypropan-2-yl)pyridin-2-yl)-1,2-dihydro-3H-pyrazolo[3,4-d]pyrimidin-3-one hydrogen chloride] | < 10 | 100 to 1000 | –
7 | C=CCn1c(=O)c2cnc(Nc3ccc4c(c3)CN(C(C)C)CC4)nc2n1-c1cccc(C(C)(C)O)n1 [Example 10, 2-Allyl-1-(6-(2-hydroxypropan-2-yl)pyridin-2-yl)-6-((2-isopropyl-1,2,3,4-tetrahydroisoquinolin-7-yl)amino)-1,2-dihydro-3H-pyrazolo[3,4-d]pyrimidin-3-one] | < 10 | – | –
8 | C=CCn1c(=O)c2cnc(Nc3ccc4c(n3)CCN(C)C4)nc2n1-c1cccc(C(C)(C)O)n1 [Example 26, 2-Allyl-1-(6-(2-hydroxypropan-2-yl)pyridin-2-yl)-6-((6-methyl-5,6,7,8-tetrahydro-1,6-naphthyridin-2-yl)amino)-1,2-dihydro-3H-pyrazolo[3,4-d]pyrimidin-3-one] | 10 to 100 | – | –
9 | C=CCn1c(=O)c2cnc(Nc3ccc4c(c3)CC(N(C)C)C4)nc2n1-c1cccc(C(C)(C)O)n1 (centres unmarked) [Example 22, 2-allyl-6-((2-(dimethylamino)-2,3-dihydro-1H-inden-5-yl)amino)-1-(6-(2-hydroxypropan-2-yl)pyridin-2-yl)-1,2-dihydro-3H-pyrazolo[3,4-d]pyrimidin-3-one] | < 10 | 100 to 1000 | > 1000
10 | C=CCn1c(=O)c2cnc(Nc3ccc4c(c3)C(=O)N(C)CC4)nc2n1-c1cccc(C(C)(C)O)n1 [Example 20, 7-((2-Allyl-1-(6-(2-hydroxypropan-2-yl)pyridin-2-yl)-3-oxo-2,3-dihydro-H-pyrazolo[3,4-d]pyrimidin-6-yl)amino)-2-methyl-3,4-dihydroisoquinolin-1(2H)-one] | < 10 | 100 to 1000 | 100 to 1000
11 | C=CCn1c(=O)c2cnc(Nc3ccc4c(c3)CN(S(C)(=O)=O)CC4)nc2n1-c1cccc(C(C)(C)O)n1 [Example 9, 2-Allyl-1-(6-(2-hydroxypropan-2-yl)pyridin-2-yl)-6-((2-(methylsulfonyl)-1,2,3,4-tetrahydroisoquinolin-7-yl)amino)-1,2-dihydro-3H-pyrazolo[3,4-d]pyrimidin-3-one] | < 10 | – | 100 to 1000
12 | C=CCn1c(=O)c2cnc(Nc3ccc4c(c3)CN(C)CC43CC3)nc2n1-c1cccc(C(C)(C)O)n1 [Example 1, 2-Allyl-1-(6-(2-hydroxypropan-2-yl)pyridin-2-yl)-6-((2′-methyl-2′,3′-dihydro-1′H-spiro-[cyclopropane-1,4′-isoquinolin]-7′-yl)amino)-1,2-dihydro-3H-pyrazolo[3,4-d]pyrimidin-3-one] | – | < 100 | 100 to 1000
13 | C=CCn1c(=O)c2cnc(Nc3ccc(N4CCN(C)CC4)cc3)nc2n1-c1cccc(C(C)(C)O)n1 [AZD1775, 2-allyl-1-(6-(2-hydroxypropan-2-yl)pyridin-2-yl)-6-(4-(4-methylpiperazin-1-yl)phenylamino)-1,2-dihydropyrazolo[3,4-d]pyrimidin-3-one, reference compound] | – | 100 to 1000 | 100 to 1000
14 | C=CCn1c(=O)c2cnc(Nc3ccc4c(c3)CNC4)nc2n1-c1cccc(C(C)(C)O)n1 [Example 21, 2-Allyl-1-(6-(2-hydroxypropan-2-yl)pyridin-2-yl)-6-(isoindolin-5-ylamino)-1,2-dihydro-3H-pyrazolo[3,4-d]pyrimidin-3-one hydrogen chloride] | < 10 | 100 to 1000 | –
15 | C=CCn1c(=O)c2cnc(Nc3cnc4c(c3)CN(C)CC4)nc2n1-c1cccc(C(C)(C)O)n1 [Example 25, 2-Allyl-1-(6-(2-hydroxypropan-2-yl)pyridin-2-yl)-6-((6-methyl-5,6,7,8-tetrahydro-1,6-naphthyridin-3-yl)amino)-1,2-dihydro-3H-pyrazolo[3,4-d]pyrimidin-3-one] | < 10 | – | –
16 | C=CCn1c(=O)c2cnc(Nc3ccc4c(c3)[C@@H](C)NCC4(C)C)nc2n1-c1cccc(C(C)(C)O)n1 (single isomer, unassigned) [Example 29] | < 10 | 100 to 1000 | –
17 | C=CCn1c(=O)c2cnc(Nc3ccc4c(c3)CCN(CCO)C4)nc2n1-c1cccc(C(C)(C)O)n1 [Example 17, 2-Allyl-6-((2-(2-hydroxyethyl)-1,2,3,4-tetrahydroisoquinolin-6-yl)amino)-1-(6-(2-hydroxypropan-2-yl)pyridin-2-yl)-1,2-dihydro-3H-pyrazolo[3,4-d]pyrimidin-3-one hydrogen chloride] | – | 100 to 1000 | –
18 | C=CCn1c(=O)c2cnc(Nc3ccc4c(c3)CN(C3COC3)CC4)nc2n1-c1cccc(C(C)(C)O)n1 [Example 14, 2-Allyl-1-(6-(2-hydroxypropan-2-yl)pyridin-2-yl)-6-((2-(oxetan-3-yl)-1,2,3,4-tetrahydroisoquinolin-7-yl)amino)-1,2-dihydro-3H-pyrazolo[3,4-d]pyrimidin-3-one] | – | 100 to 1000 | –
19 | C=CCn1c(=O)c2cnc(Nc3ccc4c(n3)CN(C)CC4)nc2n1-c1cccc(C(C)(C)O)n1 [Example 24, 2-Allyl-1-(6-(2-hydroxypropan-2-yl)pyridin-2-yl)-6-((7-methyl-5,6,7,8-tetrahydro-1,7-naphthyridin-2-yl)amino)-1,2-dihydro-3H-pyrazolo[3,4-d]pyrimidin-3-one] | 10 to 100 | – | –
20 | C=CCn1c(=O)c2cnc(Nc3ccc4c(c3)CN(C)C4)nc2n1-c1cccc(C(C)(C)O)n1 [Example 23, 2-Allyl-1-(6-(2-hydroxypropan-2-yl)pyridin-2-yl)-6-((2-methylisoindolin-5-yl)amino)-1,2-dihydro-3H-pyrazolo[3,4-d]pyrimidin-3-one] | < 10 | 100 to 1000 | –
21 | C=CCn1c(=O)c2cnc(Nc3ccc4c(c3)CN(CC)CC4)nc2n1-c1cccc(C(C)(C)O)n1 [Example 7, 2-Allyl-6-((2-ethyl-1,2,3,4-tetrahydroisoquinolin-7-yl)amino)-1-(6-(2-hydroxypropan-2-yl)pyridin-2-yl)-1,2-dihydro-3H-pyrazolo[3,4-d]pyrimidin-3-one] | < 10 | 100 to 1000 | –
22 | C=CCn1c(=O)c2cnc(Nc3ccc4c(c3)CN(C(C)C)CC43CC3)nc2n1-c1cccc(C(C)(C)O)n1 [Example 3, 2-Allyl-1-(6-(2-hydroxypropan-2-yl)pyridin-2-yl)-6-((2′-isopropyl-2′,3′-dihydro-1′H-spiro[cyclopropane-1,4′-isoquinolin]-7′-yl)amino)-1,2-dihydro-3H-pyrazolo[3,4-d]pyrimidin-3-one] | < 10 | – | –
23 | C=CCn1c(=O)c2cnc(Nc3ccc4c(c3)CCN(C3COC3)C4)nc2n1-c1cccc(C(C)(C)O)n1 [Example 18, 2-Allyl-1-(6-(2-hydroxypropan-2-yl)pyridin-2-yl)-6-((2-(oxetan-3-yl)-1,2,3,4-tetrahydroisoquinolin-6-yl)amino)-1,2-dihydro-3H-pyrazolo[3,4-d]pyrimidin-3-one] | < 10 | 100 to 1000 | –
24 | C=CCn1c(=O)c2cnc(Nc3ccc4c(c3)[C@H](C)NCC4(C)C)nc2n1-c1cccc(C(C)(C)O)n1 (single isomer, unassigned) [Example 30] | < 10 | < 100 | –
